According to the supplement of paper PMC11061612:

How the values were obtained:
[1] = tested on: IA-LM (Non-Small Cell Lung Carcinoma); experiment: combination Emax (second highest fraction inhibited in the dose matrix, 72 h); higher = more inhibition; extreme values may be limits of the assay
In short: (§1)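 Cell lines grown in DMEM/F12 or RPMI with 10% FBS were plated in 1536-well plates and held 24 hours at 37°C, 5% CO2 before 72 hours of exposure to two-drug dose matrices, with DMSO typically at 0.2%. CellTiter-Glo 2.0 luminescence gave viability, which was converted to inhibition. Vehicle wells were set to 0 and blank wells to 1. Combination Emax is the second-highest inhibition in the matrix, and Bliss excess is the observed combination effect minus the expected EA + EB − EA·EB, where EA and EB are the single-agent effects.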

IST-MEL1 (Melanoma) = experiment: as above
In short: as §1

[2] = tested on: Raji (Burkitt's Lymphoma); experiment: as above
In short: as §1

[3] = tested on: NCI-H1963 (Small Cell Lung Carcinoma); experiment: Bliss excess, mean over the matrix (fraction); higher = more synergy
In short: as §1

[4] = tested on: T84 (Colorectal Carcinoma); experiment: as above
In short: as §1

ES6 (Ewing's Sarcoma) = experiment: as above
In short: as §1

[5] = tested on: SNU-407 (Colorectal Carcinoma); experiment: as above
In short: as §1

[6] = tested on: SAT (Head and Neck Carcinoma); experiment: as above
In short: as §1

[7] = tested on: BHT-101 (Thyroid Gland Carcinoma); experiment: as above
In short: as §1

[8] = tested on: KP-4 (Pancreatic Carcinoma); experiment: as above
In short: as §1

[9] = tested on: MOLT-13 (T-Lymphoblastic Leukemia); experiment: as above
In short: as §1

[10] = tested on: NCI-H596 (Other Solid Carcinomas); experiment: as above
In short: as §1

[11] = tested on: TUR (Acute Myeloid Leukemia); experiment: as above
In short: as §1

KALS-1 (Glioblastoma) = experiment: as above
In short: as §1

[12] = tested on: SCC-4 (Oral Cavity Carcinoma); experiment: as above
In short: as §1

[13] = tested on: OVCAR-3 (Ovarian Carcinoma); experiment: as above
In short: as §1

[14] = tested on: MONO-MAC-6 (Acute Myeloid Leukemia); experiment: as above
In short: as §1

[15] = tested on: LS-1034 (Colorectal Carcinoma); experiment: as above
In short: as §1

[16] = tested on: SiHa (Cervical Carcinoma); experiment: as above
In short: as §1

[17] = tested on: C-33-A (Cervical Carcinoma); experiment: as above
In short: as §1
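For Bliss excess, mean over the matrix in this document: after 72 h of two-drug dosing.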

Structure (SMILES) | combination Emax [1] | combination Emax (IST-MEL1 (Melanoma)) | combination Emax [2] | Bliss excess [3] | Bliss excess [4] | Bliss excess (ES6 (Ewing's Sarcoma)) | Bliss excess [5] | Bliss excess [6] | Bliss excess [7] | Bliss excess [8] | Bliss excess [9] | Bliss excess [10] | Bliss excess [11] | Bliss excess (KALS-1 (Glioblastoma)) | Bliss excess [12] | Bliss excess [13] | Bliss excess [14] | Bliss excess [15] | Bliss excess [16] | Bliss excess [17]
CC1(C)CCC(CN2CCN(c3ccc(C(=O)NS(=O)(=O)c4ccc(NCC5CCOCC5)c([N+](=O)[O-])c4)c(Oc4cnc5[nH]ccc5c4)c3)CC2)=C(c2ccc(Cl)cc2)C1 [Venetoclax] + Cn1cnc2c(F)c(Nc3ccc(Br)cc3Cl)c(C(=O)NOCCO)cc21 [Selumetinib] (first compound max 1 µM, 7x7, partner max 3 µM) | 0.175 | 0.415 | 0.0995 | 0.0788 | -0.061 | -0.0321 | -0.0275 | 0.0334 | -0.0959 | -0.0521 | 0.241 | -0.0764 | -0.024 | -0.0415 | -0.0931 | -0.017 | -0.0192 | -0.0644 | -0.0516 | -0.0033
CC(=O)c1c(C)c2cnc(Nc3ccc(N4CCNCC4)cn3)nc2n(C2CCCC2)c1=O [Palbociclib] + CC1(C)CCC(CN2CCN(c3ccc(C(=O)NS(=O)(=O)c4ccc(NCC5CCOCC5)c([N+](=O)[O-])c4)c(Oc4cnc5[nH]ccc5c4)c3)CC2)=C(c2ccc(Cl)cc2)C1 [Venetoclax] (first compound max 10 µM, 7x7, partner max 1 µM) | 0.0755 | 0.237 | 0.436 | 0.226 | -0.0556 | -0.0387 | -0.01 | -0.0489 | -0.0607 | -0.104 | 0.112 | -0.0501 | 0.0153 | -0.0396 | -0.0637 | -0.0356 | 0.0129 | -0.12 | -0.0347 | -0.0474
CN(CCO)CC[C@H](CSc1ccccc1)Nc1ccc(S(=O)(=O)NC(=O)c2ccc(N3CCC([C@@H](O)c4ccccc4-c4ccc(Cl)cc4)CC3)cc2)cc1S(=O)(=O)C(F)(F)F [AZD4320] + C1CN(CCC1(C(=O)N[C@@H](CCO)C2=CC=C(C=C2)Cl)N)C3=NC=NC4=C3C=CN4 [Capivasertib] (first compound max 1 µM, 7x7, partner max 3 µM) | 0.376 | 0.26 | 0.177 | 0.0172 | -0.0269 | -0.0522 | -0.0633 | -0.0363 | 0.0092 | -0.0436 | -0.0371 | -0.0509 | -0.0062 | -0.0039 | -0.0454 | -0.0393 | -0.0438 | -0.0089 | -0.0476 | -0.0302
COc1nnc2ccc(N3CCC(c4ccc(OCCN5CCN(C)C(=O)[C@H]5C)cc4)CC3)nn12 [AZD5153] + C[C@@H]1COCCN1C2=NC(=NC(=C2)C3(CC3)[S@](=N)(=O)C)C4=C5C=CNC5=NC=C4 [AZD6738] (first compound max 1 µM, 7x7, partner max 10 µM) | 0.443 | 0.789 | 0.875 | -0.0228 | -0.131 | 0.0339 | 0.003 | 0.031 | -0.0166 | -0.0217 | 0.02 | -0.0028 | -0.0046 | -0.0314 | -0.0283 | 0.0931 | -0.031 | -0.0132 | 0.101 | 0.0515
CC(=O)Nc1cccc(-n2c(=O)n(C3CC3)c(=O)c3c(Nc4ccc(I)cc4F)n(C)c(=O)c(C)c32)c1 [Trametinib] + Cc1nc(-c2cn3c(n2)-c2ccc(-c4cnn(C(C)(C)C(N)=O)c4)cc2OCC3)n(C(C)C)n1 [Taselisib] (first compound max 1 µM, 7x7, partner max 10 µM) | 0.486 | 0.932 | 0.144 | 0.0452 | 0.233 | -0.0292 | 0.0236 | -0.0373 | 0.115 | 0.0745 | 0.153 | 0.0725 | 0.157 | 0.0751 | 0.147 | 0.037 | 0.244 | 0.0234 | 0.0162 | 0.0744
Cc1c2c(nn1C)CSCc1cc(n(C)n1)CSc1cc(c3ccccc3c1)OCCCc1c(C(=O)O)n(C)c3c-2c(Cl)ccc13 [AZD5991] + CCN(CCO)CCCOc1ccc2c(Nc3cc(CC(=O)Nc4cccc(F)c4)[nH]n3)ncnc2c1 [AZD2811] (first compound max 1 µM, 7x7, partner max 1 µM) | 0.296 | 0.349 | 0.776 | -0.0088 | 0.0441 | 0.0337 | -0.034 | 0.101 | -0.0507 | 0.0247 | 0.0028 | -0.102 | 0.121 | -0.0294 | 0.0408 | 0.0647 | 0.0258 | -0.0173 | 0.0009 | -0.028
Cc1cc2ncnn2cc1Nc1ncc2c(n1)n(C1CCOCC1)c(=O)n2C [AZD7648] + C[C@@H]1COCCN1C2=NC(=NC(=C2)C3(CC3)[S@](=N)(=O)C)C4=C5C=CNC5=NC=C4 [AZD6738] (first compound max 10 µM, 7x7, partner max 10 µM) | 0.402 | 0.777 | 0.779 | 0.0138 | 0.0189 | -0.0082 | -0.0207 | 0.0561 | 0.0197 | 0.0727 | -0.0154 | -0.0318 | 0.0024 | 0.0135 | -0.025 | 0.0009 | -0.0147 | 0.0327 | 0.0466 | 0.007
CC1(C)CCC(CN2CCN(c3ccc(C(=O)NS(=O)(=O)c4ccc(NCC5CCOCC5)c([N+](=O)[O-])c4)c(Oc4cnc5[nH]ccc5c4)c3)CC2)=C(c2ccc(Cl)cc2)C1 [Venetoclax] + C[C@@H]1COCCN1C2=NC(=NC(=C2)C3(CC3)[S@](=N)(=O)C)C4=C5C=CNC5=NC=C4 [AZD6738] (first compound max 1 µM, 7x7, partner max 10 µM) | 0.435 | 0.823 | 0.733 | 0.0004 | -0.0134 | -0.0314 | -0.0138 | -0.0144 | -0.0888 | -0.0282 | 0.0201 | -0.0571 | -0.0024 | -0.034 | -0.134 | -0.0108 | -0.0322 | -0.0255 | -0.0036 | -0.0127
CCN(CCO)CCCOc1ccc2c(Nc3cc(CC(=O)Nc4cccc(F)c4)[nH]n3)ncnc2c1 [AZD2811] + C[C@@H]1COCCN1C2=NC(=NC(=C2)C3(CC3)[S@](=N)(=O)C)C4=C5C=CNC5=NC=C4 [AZD6738] (first compound max 1 µM, 7x7, partner max 10 µM) | 0.304 | 0.731 | 0.691 | -0.0777 | -0.0103 | -0.0479 | -0.094 | -0.0581 | -0.0298 | -0.0273 | -0.0075 | -0.0056 | 0.019 | -0.038 | -0.0707 | -0.0269 | -0.0262 | -0.0473 | -0.0137 | -0.0531
CN(CCO)CC[C@H](CSc1ccccc1)Nc1ccc(S(=O)(=O)NC(=O)c2ccc(N3CCC([C@@H](O)c4ccccc4-c4ccc(Cl)cc4)CC3)cc2)cc1S(=O)(=O)C(F)(F)F [AZD4320] + Cn1cnc2c(F)c(Nc3ccc(Br)cc3Cl)c(C(=O)NOCCO)cc21 [Selumetinib] (first compound max 1 µM, 7x7, partner max 3 µM) | 0.744 | 0.35 | 0.338 | 0.0204 | 0.0142 | -0.0326 | -0.0231 | 0.0523 | 0.0147 | -0.0025 | 0.0816 | -0.0441 | 0.0029 | 0.0924 | 0.054 | 0.0276 | 0.0401 | -0.0454 | -0.0315 | 0.0597
C=CCn1c(=O)c2cnc(Nc3ccc(N4CCN(C)CC4)cc3)nc2n1-c1cccc(C(C)(C)O)n1 [AZD1775] + O=C(c1cc(Cc2n[nH]c(=O)c3ccccc23)ccc1F)N1CCN(C(=O)C2CC2)CC1 [Olaparib] (first compound max 1 µM, partner max 10 µM) | 0.252 | 0.49 | 0.74 | -0.0252 | -0.0136 | 0.0465 | -0.0364 | -0.0474 | -0.0568 | -0.0373 | 0.021 | -0.0963 | 0.0029 | -0.0611 | -0.0341 | 0.0351 | 0.0004 | 0.0299 | -0.0444 | 0.0051
Cn1cnc2c(F)c(Nc3ccc(Br)cc3Cl)c(C(=O)NOCCO)cc21 [Selumetinib] + C=CCn1c(=O)c2cnc(Nc3ccc(N4CCN(C)CC4)cc3)nc2n1-c1cccc(C(C)(C)O)n1 [AZD1775] (first compound max 10 µM, partner max 1 µM) | 0.296 | 0.527 | 0.681 | -0.0834 | -0.0495 | -0.0564 | 0.0099 | -0.0151 | -0.0417 | -0.0377 | 0.0535 | -0.0821 | -0.0146 | -0.0755 | -0.0376 | -0.0737 | -0.013 | -0.038 | -0.0422 | 0.021
CCc1c2c(nc3ccc(O)cc13)-c1cc3c(c(=O)n1C2)COC(=O)[C@]3(O)CC [SN-38] + CN(C)CCCOc1ccc(-c2ccc3ncc4c(c3c2)n(C2CCOCC2)c(=O)n4C)cn1 [AZD0156] (first compound max 0.3 µM, 7x7, partner max 1 µM) | 0.882 | 0.864 | 0.958 | 0.0847 | 0.108 | 0.0441 | -0.0188 | 0.0361 | 0.0664 | 0.0541 | 0.085 | 0.027 | 0.0516 | 0.0189 | 0.0021 | -0.037 | 0.0746 | 0.139 | -0.0241 | 0.0058
COc1cccc2c1C(=O)c1c(O)c3c(c(O)c1C2=O)C[C@@](O)(C(=O)CO)C[C@@H]3O[C@H]1C[C@H](N)[C@H](O)[C@H](C)O1 [Doxorubicin] + Cc1cc2ncnn2cc1Nc1ncc2c(n1)n(C1CCOCC1)c(=O)n2C [AZD7648] (first compound max 1 µM, 7x7, partner max 10 µM) | 0.463 | 0.724 | 0.96 | 0.1 | -0.0081 | 0.0672 | -0.0143 | 0.0764 | 0.0409 | 0.0583 | 0.209 | -0.006 | 0.119 | 0.0571 | 0.0176 | 0.0489 | 0.0935 | 0.0055 | 0.0142 | 0.0531
